Among the data in ChEMBL document CHEMBL5120841, “Discovery of novel pleuromutilin derivatives as potent antibacterial agents” (2022) are MIC values, retold here.

Broadly, the MIC is the least concentration at which growth counts as inhibited.

In brackets after ≈: the same amount, converted by molar mass. A value given as a limit tells only on which side of the number the result lay.

Type in all cases: functional
Common to all, as to conditions: time 18-24 hrs

Assay [1] has as its system Staphylococcus aureus. The assay is described as follows: Antibacterial activity against methicillin-resistant Staphylococcus aureus BNCC 337371 assessed as bacterial growth inhibition incubated for 18 to 24 hrs by microtiter dilution method.
For assay [2], the system named is Staphylococcus epidermidis. The assay is described as follows: Antibacterial activity against methicillin-resistant Staphylococcus epidermidis ATCC 51625 assessed as bacterial growth inhibition incubated for 18 to 24 hrs by microtiter dilution method.
Assay [3] concerns Staphylococcus aureus. The assay can be described thus: Antibacterial activity against Staphylococcus aureus ATCC 25923 assessed as bacterial growth inhibition incubated for 18 to 24 hrs by microtiter dilution method.
The subject of a further assay is Bacillus subtilis. The assay is described as follows: Antibacterial activity against Bacillus subtilis assessed as bacterial growth inhibition incubated for 18 to 24 hrs by microtiter dilution method.
A further assay relates to Enterococcus faecalis. The assay is described as follows: Antibacterial activity against Enterococcus faecalis assessed as bacterial growth inhibition incubated for 18 to 24 hrs by microtiter dilution method.
The next assay deals with Escherichia coli. The assay is described as follows: Antibacterial activity against Escherichia coli CICC 10389 assessed as bacterial growth inhibition incubated for 18 to 24 hrs by microtiter dilution method.

`C=C[C@]1(C)C[C@@H](OC(=O)CSc2nc(C)c(C(=O)OC)c(CC)n2)[C@]2(C)[C@H](C)CC[C@]3(CCC(=O)[C@H]32)[C@@H](C)[C@@H]1O`: the MIC in the assay on Staphylococcus aureus [1] was 0.0625 µg/mL (≈ 0.109 µM); in assay [2], 0.0625 µg/mL (≈ 0.109 µM); with Staphylococcus aureus [3], 0.0313 µg/mL (≈ 0.0546 µM); with Bacillus subtilis it was 4 µg/mL (≈ 6.98 µM); in the assay with Enterococcus faecalis, over 16 µg/mL; in the assay with Escherichia coli, over 16 µg/mL.

On to `C=CCOC(=O)C1=C(C)N=C(SCC(=O)O[C@@H]2C[C@@](C)(C=C)[C@@H](O)[C@H](C)[C@]34CCC(=O)[C@H]3[C@@]2(C)[C@H](C)CC4)NC1C` (stereo not given in full), for which the minimal inhibitory concentration (MIC) with Staphylococcus aureus [1] is 0.25 µg/mL (≈ 0.426 µM); in assay [2], 0.5 µg/mL (≈ 0.852 µM); in the assay on Staphylococcus aureus [3] it was 0.25 µg/mL (≈ 0.426 µM); with Bacillus subtilis, over 16 µg/mL; in the assay on Enterococcus faecalis, over 16 µg/mL; in the assay with Escherichia coli, over 16 µg/mL.

In the case of `C=C[C@]1(C)C[C@@H](OC(=O)CSC2=NC(C)=C(C(C)=O)C(C)N2)[C@]2(C)[C@H](C)CC[C@]3(CCC(=O)[C@H]32)[C@@H](C)[C@@H]1O` (stereo not given in full), the MIC was 0.25 µg/mL (≈ 0.459 µM) with Staphylococcus aureus [1]; 0.25 µg/mL (≈ 0.459 µM) in assay [2]; 0.125 µg/mL (≈ 0.229 µM) with Staphylococcus aureus [3]; over 16 µg/mL in the assay with Bacillus subtilis; over 16 µg/mL with Enterococcus faecalis; over 16 µg/mL in the assay with Escherichia coli.

As to `C=C[C@]1(C)C[C@@H](OC(=O)CSC2=NC(CCCC)=C(C(=O)OC)C(C)N2)[C@]2(C)[C@H](C)CC[C@]3(CCC(=O)[C@H]32)[C@@H](C)[C@@H]1O` (stereo not given in full), the MIC with Staphylococcus aureus [1] is 1 µg/mL (≈ 1.66 µM); in assay [2], 1 µg/mL (≈ 1.66 µM); in the assay with Staphylococcus aureus [3] it was 1 µg/mL (≈ 1.66 µM); in the assay with Bacillus subtilis, over 16 µg/mL; with Enterococcus faecalis, over 16 µg/mL; in the assay on Escherichia coli it was over 16 µg/mL.

For `C=C[C@]1(C)C[C@@H](OC(=O)CSC2=NC(CC)=C(C(=O)OC)C(C)N2)[C@]2(C)[C@H](C)CC[C@]3(CCC(=O)[C@H]32)[C@@H](C)[C@@H]1O` (stereo not given in full), the MIC in the assay on Staphylococcus aureus [1] is 0.25 µg/mL (≈ 0.435 µM); in assay [2] it was 0.125 µg/mL (≈ 0.217 µM); in the assay with Staphylococcus aureus [3], 0.5 µg/mL (≈ 0.87 µM); in the assay with Bacillus subtilis, 8 µg/mL (≈ 13.9 µM); in the assay on Enterococcus faecalis, over 16 µg/mL; in the assay on Escherichia coli it was over 16 µg/mL.

As for `C=C[C@]1(C)C[C@@H](OC(=O)CSC2=NC(C(CC)CC)=C(C(=O)OC)C(C)N2)[C@]2(C)[C@H](C)CC[C@]3(CCC(=O)[C@H]32)[C@@H](C)[C@@H]1O` (stereo not given in full), the MIC was 0.25 µg/mL (≈ 0.405 µM) in the assay on Staphylococcus aureus [1]; 0.25 µg/mL (≈ 0.405 µM) in assay [2]; 0.5 µg/mL (≈ 0.811 µM) in the assay with Staphylococcus aureus [3]; over 16 µg/mL with Bacillus subtilis; over 16 µg/mL with Enterococcus faecalis; over 16 µg/mL in the assay on Escherichia coli.

As for `C=C[C@]1(C)C[C@@H](OC(=O)CSc2nc(C)c(C(=O)OC(C)CC)c(C)n2)[C@]2(C)[C@H](C)CC[C@]3(CCC(=O)[C@H]32)[C@@H](C)[C@@H]1O` (stereo not given in full), the MIC in the assay on Staphylococcus aureus [1] is 0.5 µg/mL (≈ 0.832 µM); in assay [2], 0.5 µg/mL (≈ 0.832 µM); in the assay on Staphylococcus aureus [3] it was 0.5 µg/mL (≈ 0.832 µM); in the assay with Bacillus subtilis, over 16 µg/mL; in the assay with Enterococcus faecalis, over 16 µg/mL; with Escherichia coli, over 16 µg/mL.

Consider `C=C[C@]1(C)C[C@@H](OC(=O)CSC2=NC(C)=C(C(=O)OCC)C(C)N2)[C@]2(C)[C@H](C)CC[C@]3(CCC(=O)[C@H]32)[C@@H](C)[C@@H]1O` (stereo not given in full), for which the MIC in the assay on Staphylococcus aureus [1] was 0.125 µg/mL (≈ 0.217 µM); in assay [2], 0.0625 µg/mL (≈ 0.109 µM); with Staphylococcus aureus [3], 0.0625 µg/mL (≈ 0.109 µM); in the assay with Bacillus subtilis, over 16 µg/mL; in the assay on Enterococcus faecalis, over 16 µg/mL; in the assay with Escherichia coli, over 16 µg/mL.

For the molecule `C=C[C@]1(C)C[C@@H](OC(=O)CSc2nc(C)c(C(=O)OC)c(C(CC)CC)n2)[C@]2(C)[C@H](C)CC[C@]3(CCC(=O)[C@H]32)[C@@H](C)[C@@H]1O`, the MIC in the assay with Staphylococcus aureus [1] was 0.25 µg/mL (≈ 0.407 µM); in assay [2], 0.5 µg/mL (≈ 0.813 µM); in the assay with Staphylococcus aureus [3], 0.25 µg/mL (≈ 0.407 µM); in the assay with Bacillus subtilis it was over 16 µg/mL; in the assay on Enterococcus faecalis, over 16 µg/mL; in the assay with Escherichia coli, over 16 µg/mL.

`C=C[C@]1(C)C[C@@H](OC(=O)CSc2nc(C)c(C(=O)OCCC)c(C)n2)[C@]2(C)[C@H](C)CC[C@]3(CCC(=O)[C@H]32)[C@@H](C)[C@@H]1O`: the MIC in the assay on Staphylococcus aureus [1] is 0.125 µg/mL (≈ 0.213 µM); in assay [2], 0.125 µg/mL (≈ 0.213 µM); with Staphylococcus aureus [3], 0.25 µg/mL (≈ 0.426 µM); in the assay on Bacillus subtilis it was 4 µg/mL (≈ 6.82 µM); in the assay with Enterococcus faecalis, over 16 µg/mL; in the assay on Escherichia coli it was over 16 µg/mL.
